Patent publication US20130172378A1, “Combination of BRAF and VEGF Inhibitors” (GlaxoSmithKline LLC, priority 2010, published 2013)

Legend:
Format in all cases: in vivo, CD-1 nude mice
[1] = Body weight of nude mice bearing A375P F11s xenografts during treatment; conditions: in g (unit assumed)
Procedure: (§1) Female CD-1 nude mice of 6-8 weeks in age were used in these studies; all mice were obtained from Charles River Laboratories (Wilmington, Del.). Animals were housed in pathogen free conditions and handled with aseptic technique.
(§2) Mice with similar sized tumors (100-300 mm^3) were identified. The length and width of the tumors were measured by handheld calipers and body weights of the mice were measured using a bench top weighing scale. Tumor volumes were calculated based on the following formula: tumor volume=(Length×Width^2)/2. Mice were block randomized into the required number of dosing groups (n=8 mice/group). The randomization process ensured that the average tumor volume for each dosing group was approximately equal at the beginning of the study and mice with differing tumor volumes were evenly distributed. Mice were placed in groups of eight accordingly and dosed with either vehicle or compound for 36 days either once or twice daily, as summarised in the table below. Mice were weighed and tumors measured twice weekly for the duration of the study using Studylog animal study management software (Studylog Systems, Inc., South San Francisco, Calif., USA).

[2] = system: A375P F11s tumor xenografts (human melanoma, BRAF V600E); assay: A375P F11s melanoma tumor xenograft efficacy in nude mice
Procedure: as §1
The A375P F11s cell lines were grown in RPMI growth medium supplemented with 10% fetal bovine serum (FBS), 1% sodium pyruvate and 1% penicillin-streptomycin in a humidified 37° C. chamber with 5% CO2. Cells were expanded to obtain the large numbers of cells required for each injection; cells were grown in log phase, without reaching confluency and passaged regularly.
Detached cells were collected, centrifuged (1500 rpm, 5 min, 4° C.) and rinsed to remove the trypsin solution. Cells were re-suspended in PBS without magnesium or calcium and counted.
Compounds were administered in vehicles as described below.
as §2
Tumor volumes were calculated based on the following formula: tumor volume=(Length×Width^2)/2. Tumor growth curves were created from the mean±standard error of the mean, with n=8 animals per group. The percentage of tumor growth inhibition was calculated on the final day of dosing using the following formula: 1−(tumor volume in drug-treated population/tumor volume in vehicle-treated control population).

[3] = system: A375P F11s tumor xenografts (human melanoma, BRAF V600E); assay: as above; remark: listed apart in the source
[4] = group 3: Compound B 10 mg/kg PO QD, study day 7
[5] = group 4: Compound B 30 mg/kg PO QD, study day 3
[6] = group 4: Compound B 30 mg/kg PO QD, study day 9
[7] = group 4: Compound B 30 mg/kg PO QD, study day 22
[8] = group 4: Compound B 30 mg/kg PO QD, study day 25
[9] = group 4: Compound B 30 mg/kg PO QD, study day 35
[10] = group 3: Compound B 10 mg/kg PO QD, study day 0
[11] = group 3: Compound B 10 mg/kg PO QD, study day 3
[12] = group 3: Compound B 10 mg/kg PO QD, study day 9
[13] = group 3: Compound B 10 mg/kg PO QD, study day 15
[14] = group 3: Compound B 10 mg/kg PO QD, study day 18
[15] = group 3: Compound B 10 mg/kg PO QD, study day 22
[16] = group 3: Compound B 10 mg/kg PO QD, study day 25
[17] = group 3: Compound B 10 mg/kg PO QD, study day 28
[18] = group 3: Compound B 10 mg/kg PO QD, study day 31
[19] = group 4: Compound B 30 mg/kg PO QD, study day 0
[20] = group 4: Compound B 30 mg/kg PO QD, study day 7
[21] = group 4: Compound B 30 mg/kg PO QD, study day 15
[22] = group 4: Compound B 30 mg/kg PO QD, study day 18
[23] = group 4: Compound B 30 mg/kg PO QD, study day 28
[24] = group 4: Compound B 30 mg/kg PO QD, study day 31
[25] = group 4: Compound B 30 mg/kg PO QD, study day 37

Cc1ccc(Nc2nccc(N(C)c3ccc4c(C)n(C)nc4c3)n2)cc1S(N)(=O)=O [Compound A, 5-[[4-[(2,3-dimethyl-2H-indazol-6-yl)methylamino]-2-pyrimidinyl]amino]-2-methylbenzenesulfonamide]
Mean body weight of nude mice ([1]; group 2: Compound A 100 mg/kg PO BID, study day 0): 24.98 | Mean body weight of nude mice ([1]; group 2: Compound A 100 mg/kg PO BID, study day 3): 25.13 | Mean body weight of nude mice ([1]; group 2: Compound A 100 mg/kg PO BID, study day 7): 25.63 | Mean body weight of nude mice ([1]; group 2: Compound A 100 mg/kg PO BID, study day 15): 24.83 | Mean body weight of nude mice ([1]; group 2: Compound A 100 mg/kg PO BID, study day 18): 25.35 | Mean body weight of nude mice ([1]; group 2: Compound A 100 mg/kg PO BID, study day 22): 24.71 | Mean body weight of nude mice ([1]; group 2: Compound A 100 mg/kg PO BID, study day 25): 24.79 | Mean body weight of nude mice ([1]; group 2: Compound A 100 mg/kg PO BID, study day 28): 24.91 | Mean body weight of nude mice ([1]; group 2: Compound A 100 mg/kg PO BID, study day 35): 24.95 | Mean body weight of nude mice ([1]; group 2: Compound A 100 mg/kg PO BID, study day 37): 25.00

CC(C)(C)c1nc(-c2cccc(NS(=O)(=O)c3c(F)cccc3F)c2F)c(-c2ccnc(N)n2)s1 [Compound B, N-{3-[5-(2-Amino-4-pyrimidinyl)-2-(1,1-dimethylethyl)-1,3-thiazol-4-yl]-2-fluorophenyl}-2,6-difluorobenzenesulfonamide]
Mean A375P F11s tumor volume [2, 4]: 189.5 mm^3 | Mean A375P F11s tumor volume [2, 5]: 144.2 mm^3 | Mean A375P F11s tumor volume [2, 6]: 99.5 mm^3 | Mean A375P F11s tumor volume [2, 7]: 116.4 mm^3 | Mean A375P F11s tumor volume [2, 8]: 142.1 mm^3 | Mean A375P F11s tumor volume [2, 9]: 168.1 mm^3 | Mean body weight of nude mice [1, 10]: 25.71 | Mean body weight of nude mice [1, 11]: 26.14 | Mean body weight of nude mice [1, 4]: 26.13 | Mean body weight of nude mice [1, 12]: 26.29 | Mean body weight of nude mice [1, 13]: 25.69 | Mean body weight of nude mice [1, 14]: 26.44 | Mean body weight of nude mice [1, 15]: 26.00 | Mean body weight of nude mice [1, 16]: 26.45 | Mean body weight of nude mice [1, 17]: 26.55 | Mean body weight of nude mice [1, 18]: 27.11 | Mean body weight of nude mice [1, 19]: 25.49 | Mean body weight of nude mice [1, 5]: 25.38 | Mean body weight of nude mice [1, 20]: 25.15 | Mean body weight of nude mice [1, 6]: 25.35 | Mean body weight of nude mice [1, 21]: 24.46 | Mean body weight of nude mice [1, 22]: 24.84 | Mean body weight of nude mice [1, 7]: 24.67 | Mean body weight of nude mice [1, 8]: 24.87 | Mean body weight of nude mice [1, 23]: 24.79 | Mean body weight of nude mice [1, 24]: 24.83 | Mean body weight of nude mice [1, 9]: 24.41 | Mean body weight of nude mice [1, 25]: 24.65 | Mean A375P F11s tumor volume [3, 10]: 178.5 mm^3 | Percent Inhibition of A375P F11s tumor volume compared to vehicle treated mice [3, 10]: −3.6% | Mean A375P F11s tumor volume [3, 11]: 164.5 mm^3 | Percent Inhibition of A375P F11s tumor volume compared to vehicle treated mice [3, 11]: 34.3% | Percent Inhibition of A375P F11s tumor volume compared to vehicle treated mice [3, 4]: 39.0% | Mean A375P F11s tumor volume [3, 12]: 247.5 mm^3 | Percent Inhibition of A375P F11s tumor volume compared to vehicle treated mice [3, 12]: 36.6% | Mean A375P F11s tumor volume [3, 13]: 350.4 mm^3 | Percent Inhibition of A375P F11s tumor volume compared to vehicle treated mice [3, 13]: 45.3% | Mean A375P F11s tumor volume [3, 14]: 469.7 mm^3 | Percent Inhibition of A375P F11s tumor volume compared to vehicle treated mice [3, 14]: 35.4% | Mean A375P F11s tumor volume [3, 15]: 494.2 mm^3 | Percent Inhibition of A375P F11s tumor volume compared to vehicle treated mice [3, 15]: 47.2% | Mean A375P F11s tumor volume [3, 16]: 581.5 mm^3 | Percent Inhibition of A375P F11s tumor volume compared to vehicle treated mice [3, 16]: 46.6% | Mean A375P F11s tumor volume [3, 17]: 682.0 mm^3 | Percent Inhibition of A375P F11s tumor volume compared to vehicle treated mice [3, 17]: 45.6% | Mean A375P F11s tumor volume [3, 18]: 830.5 mm^3 | Mean A375P F11s tumor volume ([3]; group 3: Compound B 10 mg/kg PO QD, study day 35): 1,105.5 mm^3 | Mean A375P F11s tumor volume [3, 19]: 156.9 mm^3 | Percent Inhibition of A375P F11s tumor volume compared to vehicle treated mice [3, 19]: 8.9% | Percent Inhibition of A375P F11s tumor volume compared to vehicle treated mice [3, 5]: 42.4% | Mean A375P F11s tumor volume [3, 20]: 104.1 mm^3 | Percent Inhibition of A375P F11s tumor volume compared to vehicle treated mice [3, 20]: 66.5% | Percent Inhibition of A375P F11s tumor volume compared to vehicle treated mice [3, 6]: 74.5% | Mean A375P F11s tumor volume [3, 21]: 94.0 mm^3 | Percent Inhibition of A375P F11s tumor volume compared to vehicle treated mice [3, 21]: 85.3% | Mean A375P F11s tumor volume [3, 22]: 104.4 mm^3 | Percent Inhibition of A375P F11s tumor volume compared to vehicle treated mice [3, 22]: 85.6% | Percent Inhibition of A375P F11s tumor volume compared to vehicle treated mice [3, 7]: 87.6% | Percent Inhibition of A375P F11s tumor volume compared to vehicle treated mice [3, 8]: 87.0% | Mean A375P F11s tumor volume [3, 23]: 148.7 mm^3 | Percent Inhibition of A375P F11s tumor volume compared to vehicle treated mice [3, 23]: 88.1% | Mean A375P F11s tumor volume [3, 24]: 166.1 mm^3 | Mean A375P F11s tumor volume [3, 25]: 207.6 mm^3
